Results: patent US20020065309A1, “Novel Bicyclic and tricyclic pyrrolidine derivatives as GnRH antagonists” (priority 1999, published 2002)

biological target: T1, human GnRH receptor (Homo sapiens, UniProt P30968); experiment: GnRH radioligand binding assay; conditions: 125I-LHRH-D-Trp6 radioligand; COS-1 cell membranes containing human GnRH receptors; 2 h at 4 C
T1 construct: expressed in transfected cells; host or cells: COS-1 cells infected with recombinant adenovirus; membrane preparation
T1 sequence (P30968 1-328): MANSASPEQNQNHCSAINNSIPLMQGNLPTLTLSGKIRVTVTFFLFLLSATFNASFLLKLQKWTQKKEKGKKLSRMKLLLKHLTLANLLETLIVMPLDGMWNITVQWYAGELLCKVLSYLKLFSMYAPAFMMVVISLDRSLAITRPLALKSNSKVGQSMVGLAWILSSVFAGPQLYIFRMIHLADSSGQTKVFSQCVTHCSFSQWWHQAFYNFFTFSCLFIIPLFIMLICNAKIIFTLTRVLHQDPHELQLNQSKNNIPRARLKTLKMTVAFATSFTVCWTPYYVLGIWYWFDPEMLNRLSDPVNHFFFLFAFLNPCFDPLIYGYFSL
Protocol: COS-1 cells infected with a recombinant adenovirus directing the expression of the human GnRH receptor were harvested 48 hours after virus infection using cell dissociation buffer from Gibco-BRL and pelleted by centrifugation (5 min., 1100 rpm in RC3B, […]). The pellet was suspended in 20 ml ice cold binding buffer (25 mM Tris HCl, pH 7.4, 0.1% sodium azide, 0.1% BSA) and homogenized using polytron (Tempest Virtishear, Virtis).
The homogenate was centrifuged for 12 min. at 14,500 rpm in a RC5B and the supernatant discarded. The pellet was re-homogenized in 20 ml of binding buffer and centrifuged. The final pellet was resuspended in a small volume of binding buffer such that the final protein concentration was approximately 1.5 mg/ml (according to Pierce-BCA Protein kit). Aliquots of membrane preparation could then be stored frozen at −70 C without significant loss of binding activity for future use.
Samples were diluted in binding buffer (25 mM Tris pH 7.5, 10 MM MgCl2, 0.01% NaN3, 0.1% BSA) for the assay. The radioligand used was ^125I-LHRH-D-TrP6, approximately 50-70,000 counts/25 μl Non-specific binding was determined using LHRH-D-TrP6 at a final concentration of 1 µM. Addition of GnRH membranes to the assay was optimized to give a signal-to-noise ratio of 10:1.
Twenty-five μl sample (4× final concentration), 50 μl membranes and 25 μl radioligand were incubated in a V-bottom 96-well plate with shaking for 2 h at 4 C. The incubated mixture was then filtered onto a Whatman GF/B membrane pre-treated with 0.1% poly(ethylene imine) using a Packard Cell Harvester. The filter was dried for approximately 10 min. at 37 C. Forty μl Microscint 20 was added and the radioactivity remaining on the filter was counted using a Topcount γ-counter.
Binding inhibition was calculated from the measured values using a concentration series of each test compound in the conventional manner.

SMILES | IC50 [µM]
COc1ccc(CN2C[C@@H]3C[C@@H](c4ccc(N(C)C)c5ccccc45)N4C(=O)N(CCc5ccncc5)C(=O)[C@@]34C2)cc1O (relative stereo) [AF22053] | ~0.385
COc1ccc(CN2C[C@@H]3C[C@@H](c4ccc(OC)c5ccccc45)N4C(=O)N(CCN5CCOCC5)C(=O)[C@@]34C2)cc1O (relative stereo) [AF21477] | ~0.612
COc1ccc(CN2C[C@@H]3C[C@@H](c4ccc(N(C)C)c5ccccc45)N4C(=O)N(CCN5CCNCC5)C(=O)[C@@]34C2)cc1O (relative stereo) [AF22352] | ~1.5
CCOc1cc(CN2C[C@@H]3C[C@@H](c4ccc(N(C)C)c5ccccc45)N4C(=O)N(CCN5CCOCC5)C(=O)[C@@]34C2)ccc1O (relative stereo) [AF20660] | 0.8 ± 0.11
COc1ccc(CN2C[C@H]3C[C@H](c4ccnc5ccccc45)N4C(=O)N(CCN5CCOCC5)C(=O)[C@]34C2)cc1O (relative stereo) [Compound 73, (trans)-8-(3-hydroxy-4-methoxybenzyl)-2-(2-morpholin-4-ylethyl)-5-quinolin-4-ylhexahydro-1H-pyrrolo [3′, 4′:2,3]pyrrolo[1,2-c]imidazole-1,3(2H)-dione] | ~1.5

Now those with a lower IC50, led by results:

IC50 [µM] | SMILES
~0.021 | COc1ccc(CN2C[C@H]3C[C@H](c4ccc(N(C)C)c5ccccc45)N4C(=O)N(CCN5CCOCC5)C(=O)[C@]34C2)cc1NC(C)=O (relative stereo) [Compound 36, N-{5-[((trans)-5-[4-(dimethylamino)-1-naphthyl]-2-(2-morpholin-4-ylethyl)-1,3-dioxohexahydro-1H-pyrrolo[3′,4′:2,3]pyrrolo[1,2-c]imidazol-8(9H)-yl)methyl]-2-methoxyphenyl}acetamide]
~0.27 | O=C1N(CCN2CCOCC2)C(=O)[C@]23CNC[C@H]2C[C@H](c2cnc4ccccc4c2)N13 (relative stereo) [Compound 76, (trans)-2-(2-morpholin-4-ylethyl)-5-quinolin-3-ylhexahydro-1H-pyrrolo [3′,4′:2,3] pyrrolo [1,2-c]imidazole-1,3(2H)-dione]
0.28 ± 0.17 | COc1cc(CN2C[C@@H]3C[C@@H](c4ccc(N(C)C)c5ccccc45)N4C(=O)N(CCN5CCOCC5)C(=O)[C@@]34C2)c(Br)c(Br)c1O (relative stereo) [AF21278]
~0.321 | COc1ccc(CN2C[C@H]3C[C@H](c4ccc(N)c5ccccc45)N4C(=O)N(CCN5CCOCC5)C(=O)[C@]34C2)cc1O (relative stereo) [Compound 17, (trans)-5-[4-amino-1-naphthyl]-8-(3-hydroxy-4-methoxybenzyl)-2-(2-morpholin-4-ylethyl)hexahydro-1H-pyrrolo[3′,4′:2,3]pyrrolo[1,2-c]imidazole-1,3(2H)-dione]
~0.08 | COc1cc(Br)c(CN2C[C@@H]3C[C@@H](c4ccc(N(C)C)c5ccccc45)N4C(=O)N(CCN5CCOCC5)C(=O)[C@@]34C2)cc1O (relative stereo) [AF21813]
~0.16 | COc1ccc(CN2C[C@@H]3C[C@@H](c4ccc(N(C)C)cc4)N4C(=O)N(CCN5CCOCC5)C(=O)[C@@]34C2)cc1O (relative stereo) [AF21479]
0.035 ± 0.006 | COc1ccc(CN2C[C@@H]3C[C@@H](c4ccc(N(C)C)c5ccccc45)N4C(=O)N(CCN5CCOCC5)C(=O)[C@@]34C2)cc1O (relative stereo) [AF21276]
